“And” between values parts separate entries of the source, which are not always exact repeats. Equal values may be shown once. Toxic doses and inconclusive results are not listed.
Test system: P388 leukemia ip, CD2F1 mice, survival T/C
Experiment: NCI In Vivo Anticancer Drug Screen. Data for tumor model P388 Leukemia (intraperitoneal) in CD2F1 (CDF1) mice
Settings: endpoint: median survival time, higher = longer survival
In short: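 Mice carrying the transplanted tumor received test compound or vehicle. Survival was recorded in each group, and the value is the treated-group measurement divided by that of the vehicle-treated control group.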

[1] = dose: 25.0 mg/kg/injection, schedule: Q01DX005 (ip), vehicle: saline with Tween-80
[2] = dose: 50.0 mg/kg/injection, schedule: Q01DX005 (ip), vehicle: saline with Tween-80
[3] = dose: 100.0 mg/kg/injection, schedule: Q01DX005 (ip), vehicle: saline with Tween-80
[4] = dose: 15.0 mg/kg/injection, schedule: Q01DX005 (ip), vehicle: saline with Tween-80
[5] = dose: 30.0 mg/kg/injection, schedule: Q01DX005 (ip), vehicle: saline with Tween-80
[6] = dose: 100.0 mg/kg/injection, schedule: Q04DX002 (ip), vehicle: saline with Tween-80
[7] = dose: 200.0 mg/kg/injection, schedule: Q04DX002 (ip), vehicle: saline with Tween-80
[8] = dose: 400.0 mg/kg/injection, schedule: Q04DX002 (ip), vehicle: saline with Tween-80
[9] = dose: 200.0 mg/kg/injection, schedule: Q01DX005 (ip), vehicle: saline with Tween-80
[10] = dose: 60.0 mg/kg/injection, schedule: Q01DX005 (ip), vehicle: saline with Tween-80

SMILES: CNC(=O)OCc1nc(SC)n(Cc2ccccc2)c1COC(=O)NC
- T/C (dose: 12.5 mg/kg/injection, schedule: Q01DX005 (ip), vehicle: saline with Tween-80): 100 % of control
- T/C [1]: 110 % of control
- T/C [2]: 110 % of control and 116 % of control
- T/C [3]: 106 % of control and 116 % of control

SMILES: CN(C)CCO/N=C1/CC[C@H]2[C@@H]3CC[C@H]4C[C@H](O)CC[C@]4(C)[C@H]3CC[C@]12C
- T/C (dose: 12.5 mg/kg/injection, schedule: Q01DX005 (ip), vehicle: Klucel (hydroxypropylcellulose) (HPC)): 104 % of control
- T/C (dose: 25.0 mg/kg/injection, schedule: Q01DX005 (ip), vehicle: Klucel (hydroxypropylcellulose) (HPC)): 95 % of control
- T/C (dose: 50.0 mg/kg/injection, schedule: Q01DX005 (ip), vehicle: Klucel (hydroxypropylcellulose) (HPC)): 95 % of control

SMILES: CCOc1ccc2nc3ccccc3c(N)c2c1
- T/C (dose: 7.5 mg/kg/injection, schedule: Q01DX005 (ip), vehicle: saline with Tween-80): 103 % of control and 112 % of control
- T/C [4]: 113 % of control
- T/C [5]: 124 % of control

SMILES: CCOC(=O)C1=CNN=CC12C(=O)NC(=Nc1ccccc1)N2c1ccccc1 (stereo unspecified)
- T/C [6]: 93 % of control
- T/C [7]: 104 % of control
- T/C [8]: 95 % of control

SMILES: C[N+]1(CC(=O)O)C2CCC1CC(O)C2 (stereo unspecified)
- T/C (dose: 25.0 mg/kg/injection, schedule: Q01DX009 (ip), vehicle: saline): 108 % of control
- T/C (dose: 50.0 mg/kg/injection, schedule: Q01DX009 (ip), vehicle: saline): 98 % of control and 100 % of control
- T/C (dose: 100.0 mg/kg/injection, schedule: Q01DX009 (ip), vehicle: saline): 101 % of control
- T/C (dose: 200.0 mg/kg/injection, schedule: Q01DX009 (ip), vehicle: saline): 101 % of control and 96 % of control

SMILES: CCCCOc1ccc(-c2cnc(-c3ccc(-c4ncc(-c5ccc(OCCCC)cc5)o4)cc3)o2)cc1
- T/C (dose: 3.0 mg/kg/injection, schedule: Q01DX005 (ip), vehicle: saline with Tween-80): 91 % of control
- T/C (dose: 6.0 mg/kg/injection, schedule: Q01DX005 (ip), vehicle: saline with Tween-80): 88 % of control
- T/C [1]: 89 % of control
- T/C [2]: 87 % of control and 94 % of control
- T/C [3]: 99 % of control
- T/C [9]: 108 % of control

SMILES: CN(C)c1ccc2[nH]c3c(C(N)=O)cc(=O)c(=O)c=3oc2c1
- T/C [1]: 100 % of control and 107 % of control
- T/C [2]: 98 % of control and 100 % of control (2×)
- T/C [3]: 100 % of control and 120 % of control and 97 % of control
- T/C [9]: 98 % of control and 107 % of control and 117 % of control

SMILES: O=C(O)C(c1ccccc1)N1C(=O)C(Cl)=C(Cl)C1=O (stereo unspecified)
- T/C [4]: 94 % of control
- T/C [5]: 100 % of control
- T/C [10]: 103 % of control and 112 % of control

SMILES: Cc1ccc(C2CCC(C#N)=CN2C)cc1 (stereo unspecified)
- T/C (dose: 50.0 mg/kg/injection, schedule: Q01DX005 (ip), vehicle: Klucel + Tween-80): 94 % of control
- T/C (dose: 100.0 mg/kg/injection, schedule: Q01DX005 (ip), vehicle: Klucel + Tween-80): 98 % of control
- T/C (dose: 200.0 mg/kg/injection, schedule: Q01DX005 (ip), vehicle: Klucel + Tween-80): 100 % of control

SMILES: CCc1ccc2c(c1)C(O)(C#Cc1ccccc1)c1cc(CC)ccc1C2(O)C#Cc1ccccc1 (stereo unspecified)
- T/C [6]: 93 % of control
- T/C [7]: 93 % of control
- T/C [8]: 93 % of control

SMILES: O=C(OCC(Cl)(Cl)Cl)N1C2C=CC(C3OC32)N1C(=O)OCC(Cl)(Cl)Cl (stereo unspecified)
- T/C (dose: 50.0 mg/kg/injection, schedule: Q01DX009 (ip), vehicle: suspension in saline): 88 % of control
- T/C (dose: 100.0 mg/kg/injection, schedule: Q01DX009 (ip), vehicle: suspension in saline): 90 % of control
- T/C (dose: 200.0 mg/kg/injection, schedule: Q01DX009 (ip), vehicle: suspension in saline): 98 % of control

SMILES: c1ccc2c(c1)nnn1c3ncccc3nc21
- T/C (dose: 12.5 mg/kg/injection, schedule: Q01DX009 (ip), vehicle: saline with Tween-80): 108 % of control
- T/C (dose: 25.0 mg/kg/injection, schedule: Q01DX009 (ip), vehicle: saline with Tween-80): 105 % of control
- T/C (dose: 50.0 mg/kg/injection, schedule: Q01DX009 (ip), vehicle: saline with Tween-80): 105 % of control

SMILES: COc1ccc2c(c1OC(C)=O)-c1cc(O)cc3c1C(C2)N(C(=O)CN(CCCl)CCCl)CC3 (stereo unspecified)
- T/C (dose: 3.13 mg/kg/injection, schedule: Q04DX003 (ip), vehicle: DMSO): 116 % of control
- T/C (dose: 6.25 mg/kg/injection, schedule: Q04DX003 (ip), vehicle: DMSO): 123 % of control
- T/C (dose: 12.5 mg/kg/injection, schedule: Q04DX003 (ip), vehicle: DMSO): 174 % of control
- T/C (dose: 25.0 mg/kg/injection, schedule: Q04DX003 (ip), vehicle: DMSO): 168 % of control
- T/C (dose: 25.0 mg/kg/injection, schedule: Q04DX003 (ip), vehicle: distilled water + Tween-80): 154 % of control
- T/C (dose: 50.0 mg/kg/injection, schedule: Q04DX003 (ip), vehicle: DMSO): 169 % of control
- T/C (dose: 50.0 mg/kg/injection, schedule: Q04DX003 (ip), vehicle: saline): 87 % of control

SMILES: O=C(Cn1cnc2ccc([N+](=O)[O-])cc21)N1CCN(c2ccccc2)CC1
- T/C [10]: 93 % of control
- T/C (dose: 120.0 mg/kg/injection, schedule: Q01DX005 (ip), vehicle: saline with Tween-80): 93 % of control

— PubChem BioAssay AID330 (DTP/NCI, 2004)
